This passage reports IC50 results from patent US20220168427A1 (Ranok Therapeutics (Hangzhou) Co. Ltd., priority 2019, published 2022).

Bounds are passed on as bounds.

One data set addresses T1, BRD4 (BD1+BD2) (Homo sapiens, UniProt O60885).
T1 construct: 1.8 μg/ml recombinant BRD4 (BD1+BD2 domains) protein
The settings on record: read-out: BRD4 Binding Potency.

The next data set deals with HSP90α (Homo sapiens, UniProt P07900). Nature of the data set: HSP90α Binding Fluorescent Polarization (FP) Assay. The settings on record: competition with FITC-geldanamycin; read-out: HSP90 Binding Potency. In outline:
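Duplicate wells held BSA buffer, FITC-geldanamycin tracer, compound (3-fold dilution plate spanning 40 μM–2.0 nM) and recombinant protein diluted to 28 μg/ml before addition. Polarization read at 30, 60 and 120 min, 25 °C. Background-corrected mP values gave IC50 through a four-parameter inhibitor-response fit.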

Another data set relates to MV4-11 cells. The data set can be described thus: MV4-11 Cell Cytotoxicity Assay. The format is cell-based, human. The settings on record: human, MV4-11 cells, CCK-8. From the text:
% Inhibition=100−(D−B)/(S−B)*100%.
S: The absorbance of the maximum (cells with DMSO)
B: The absorbance of the minimum (medium with DMSO)

Take `CCc1cc(-c2nnc(C(=O)NC(C)C)n2-c2ccc(CN3CCN(CC4CCN(C(=O)C[C@@H]5N=C(c6ccc(Cl)cc6)c6c(sc(C)c6C)-n6c(C)nnc65)CC4)CC3)cc2)c(O)cc1O` [Compound 105, (S)-4-(4-((4-((1-(2-(4-(4-chlorophenyl)-2,3,9-trimethyl-6H-thieno[3,2-f][1,2,4]triazolo[4,3-a][1,4]diazepin-6-yl)acetyl)piperidin-4-yl)methyl)piperazin-1-yl)methyl)phenyl)-5-(5-ethyl-2,4-dihydroxyphenyl)-N-isopropyl-4H-1,2,4-triazole-3-carboxamide, trifluoroacetic acid]: the IC50 on BRD4 (BD1+BD2) and at HSP90α was 100 to 1000 nM each time. In the data set with MV4-11 cells, the IC50 at 72 h was < 100 nM.

`Cc1cc(-c2nnc(C(=O)NCCN3CCCCC3)n2-c2ccc(CN3CCN(CC4CCN(C(=O)C[C@@H]5N=C(c6ccc(Cl)cc6)c6c(sc(C)c6C)-n6c(C)nnc65)CC4)CC3)cc2)c(O)cc1O` [Compound 124, (S)-4-(4-((4-((1-(2-(4-(4-chlorophenyl)-2,3,9-trimethyl-6H-thieno[3,2-f][1,2,4]triazolo[4,3-a][1,4]diazepin-6-yl)acetyl)piperidin-4-yl)methyl)piperazin-1-yl)methyl)phenyl)-5-(2,4-dihydroxy-5-methylphenyl)-N-(2-(piperidin-1-yl)ethyl)-4H-1,2,4-triazole-3-carboxamide, trifluoroacetic acid]: the IC50 on BRD4 (BD1+BD2) was < 100 nM; on HSP90α, 100 to 1000 nM. In the data set on MV4-11 cells, the IC50 at 72 h was < 100 nM.

`Cc1sc2c(c1C)C(c1ccc(Cl)cc1)=N[C@@H](CC(=O)N1CCC(CN3CCN(Cc4ccc(-n5c(C(=O)NCCN6CCCCC6)nnc5-c5cc(C(C)C)c(O)cc5O)cc4)CC3)CC1)c1nnc(C)n1-2` [Compound 107, (S)-4-(4-((4-((1-(2-(4-(4-chlorophenyl)-2,3,9-trimethyl-6H-thieno[3,2-f][1,2,4]triazolo[4,3-a][1,4]diazepin-6-yl)acetyl)piperidin-4-yl)methyl)piperazin-1-yl)methyl)phenyl)-5-(2,4-dihydroxy-5-isopropylphenyl)-N-(2-(piperidin-1-yl)ethyl)-4H-1,2,4-triazole-3-carboxamide, trifluoroacetic acid]: the figures for the IC50 on BRD4 (BD1+BD2) and at HSP90α were < 100 nM and 100 to 1000 nM, respectively. In addition, the IC50 at 72 h in the data set with MV4-11 cells was < 100 nM.

With `Cc1sc2c(c1C)C(c1ccc(Cl)cc1)=N[C@@H](CC(=O)N1CCC(N3CCN(Cc4ccc(-n5c(O)nnc5-c5cc(C(C)C)c(O)cc5O)cc4)CC3)CC1)c1nnc(C)n1-2` [Compound 42, (S)-2-(4-(4-chlorophenyl)-2,3,9-trimethyl-6H-thieno[3,2-f][1,2,4]triazolo[4,3-a][1,4]diazepin-6-yl)-1-(4-(4-(4-(3-(2,4-dihydroxy-5-isopropylphenyl)-5-hydroxy-4H-1,2,4-triazol-4-yl)benzyl)piperazin-1-yl)piperidin-1-yl)ethan-1-one, trifluoroacetic acid], the IC50 at BRD4 (BD1+BD2) and at HSP90α was 100 to 1000 nM throughout. Moreover, in the data set with MV4-11 cells, the IC50 at 72 h was < 100 nM.

As to `CCc1cc(-c2nnc(C(=O)NCCN(CC)CC)n2-c2ccc(CN3CCN(CC4CCN(C(=O)C[C@@H]5N=C(c6ccc(Cl)cc6)c6c(sc(C)c6C)-n6c(C)nnc65)CC4)CC3)cc2)c(O)cc1O` [Compound 104, (S)-4-(4-((4-((1-(2-(4-(4-chlorophenyl)-2,3,9-trimethyl-6H-thieno[3,2-f][1,2,4]triazolo[4,3-a][1,4]diazepin-6-yl)acetyl)piperidin-4-yl)methyl)piperazin-1-yl)methyl)phenyl)-N-(2-(diethylamino)ethyl)-5-(5-ethyl-2,4-dihydroxyphenyl)-4H-1,2,4-triazole-3-carboxamide, trifluoroacetic acid], the values for the IC50 at BRD4 (BD1+BD2) and at HSP90α were < 100 nM and 100 to 1000 nM, respectively. Further, the IC50 at 72 h in the data set on MV4-11 cells is < 100 nM.

Consider `CCc1cc(-c2nnc(C(=O)NCCN3CCCCC3)n2-c2ccc(CN3CCN(CC4CCN(C(=O)C[C@@H]5N=C(c6ccc(Cl)cc6)c6c(sc(C)c6C)-n6c(C)nnc65)CC4)CC3)cc2)c(O)cc1O` [Compound 117, (S)-4-(4-((4-((1-(2-(4-(4-chlorophenyl)-2,3,9-trimethyl-6H-thieno[3,2-f][1,2,4]triazolo[4,3-a][1,4]diazepin-6-yl)acetyl)piperidin-4-yl)methyl)piperazin-1-yl)methyl)phenyl)-5-(5-ethyl-2,4-dihydroxyphenyl)-N-(2-(piperidin-1-yl)ethyl)-4H-1,2,4-triazole-3-carboxamide, trifluoroacetic acid], for which the results for the IC50 at BRD4 (BD1+BD2) and at HSP90α were < 100 nM and 100 to 1000 nM, respectively. For the same compound, the IC50 at 72 h in the data set on MV4-11 cells is < 100 nM.

On to `Cc1sc2c(c1C)C(c1ccc(Cl)cc1)=N[C@@H](CC(=O)N1CCN(Cc3ccc4c(c3)CN(C(=O)c3ccc(O)cc3O)C4)CC1)c1nnc(C)n1-2` [Compound 143, (S)-2-(4-(4-chlorophenyl)-2,3,9-trimethyl-6H-thieno[3,2-f][1,2,4]triazolo[4,3-a][1,4]diazepin-6-yl)-1-(4-((2-(2,4-dihydroxybenzoyl)isoindolin-5-yl)methyl)piperazin-1-yl)ethan-1-one], for which the figures for the IC50 on BRD4 (BD1+BD2) and on HSP90α were > 1000 nM and 100 to 1000 nM, respectively. The IC50 at 72 h with MV4-11 cells was > 1000 nM.

Take `CCc1cc(-c2nnc(O)n2-c2ccc(CN3CCN(CC4CCN(C(=O)C[C@H]5N=C(c6ccc(Cl)cc6)c6c(sc(C)c6C)-n6c(C)nnc65)CC4)CC3)cc2)c(O)cc1O` [Compound 27, 2-((6R)-4-(4-chlorophenyl)-2,3,9-trimethyl-6H-thieno[3,2-f][1,2,4]triazolo[4,3-a][1,4]diazepin-6-yl)-1-(4-((4-(4-(3-(5-ethyl-2,4-dihydroxyphenyl)-5-hydroxy-4H-1,2,4-triazol-4-yl)benzyl)piperazin-1-yl)methyl)piperidin-1-yl)ethanone, trifluoroacetic acid]: the IC50 was > 1000 nM at BRD4 (BD1+BD2) and 100 to 1000 nM on HSP90α. The IC50 at 72 h with MV4-11 cells is < 100 nM.

On to `Cc1cc(C(=O)N2Cc3ccc(CN4CCN(C(=O)C[C@@H]5N=C(c6ccc(Cl)cc6)c6c(sc(C)c6C)-n6c(C)nnc65)CC4)cc3C2)c(O)cc1O` [Compound 144, (S)-2-(4-(4-chlorophenyl)-2,3,9-trimethyl-6H-thieno[3,2-f][1,2,4]triazolo[4,3-a][1,4]diazepin-6-yl)-1-(4-((2-(2,4-dihydroxy-5-methylbenzoyl)isoindolin-5-yl)methyl)piperazin-1-yl)ethan-1-one], for which the IC50 at BRD4 (BD1+BD2) and on HSP90α was 100 to 1000 nM in each case. Further, in the data set with MV4-11 cells, the IC50 at 72 h fell in the range of 100 to 1000 nM.

Regarding `Cc1sc2c(c1C)C(c1ccc(Cl)cc1)=N[C@@H](CC(=O)NCCOCc1ccc(-n3c(O)nnc3-c3cc(C(C)C)c(O)cc3O)cc1)c1nnc(C)n1-2` [Compound 52, 2-((6S)-4-(4-chlorophenyl)-2,3,9-trimethyl-6H-thieno[3,2-f][1,2,4]triazolo[4,3-a][1,4]diazepin-6-yl)-N-(2-((4-(3-(2,4-dihydroxy-5-isopropylphenyl)-5-hydroxy-4H-1,2,4-triazol-4-yl)benzyl)oxy)ethyl)acetamide], the IC50 on BRD4 (BD1+BD2) is > 1000 nM; on HSP90α, < 100 nM. Also, the IC50 at 72 h in the data set on MV4-11 cells fell in the range of 100 to 1000 nM.

As for `COc1cccc(-c2cc(C(=O)Nc3ccc(-c4ccc(OC5CCN(CC[C@@H]6N=C(c7ccc(Cl)cc7)c7c(sc(C)c7C)-n7c(C)nnc76)CC5)cc4O)cc3)ccc2OC)c1` [Compound 132], the IC50 at BRD4 (BD1+BD2) and at HSP90α was > 1000 nM in each case. Moreover, in the data set with MV4-11 cells, the IC50 at 72 h was > 1000 nM.
